Results from the NIST ThermoML archive (doi:10.1021/je800999s).
± gives the expanded uncertainty stated by the source.

Experiment: molar heat capacity at constant pressure
Conditions: 101 kPa, Liquid, Large sample (1 g) DSC

Compound	molar heat capacity at constant pressure (303.15 K) [J/K/mol]	molar heat capacity at constant pressure (308.15 K) [J/K/mol]	molar heat capacity at constant pressure (313.15 K) [J/K/mol]	molar heat capacity at constant pressure (318.15 K) [J/K/mol]	molar heat capacity at constant pressure (323.15 K) [J/K/mol]	molar heat capacity at constant pressure (328.15 K) [J/K/mol]	molar heat capacity at constant pressure (333.15 K) [J/K/mol]	molar heat capacity at constant pressure (338.15 K) [J/K/mol]	molar heat capacity at constant pressure (343.15 K) [J/K/mol]	molar heat capacity at constant pressure (348.15 K) [J/K/mol]	molar heat capacity at constant pressure (353.15 K) [J/K/mol]
COCCOCCOCCOC [2,5,8,11-tetraoxadodecane]	359 ± 15	364 ± 15	366 ± 16	368 ± 16	370 ± 16	371 ± 16	373 ± 16	375 ± 16	379 ± 16	381 ± 16	382 ± 16
O=S1(=O)CCCC1 [sulfolane]	182 ± 8	184 ± 8	185 ± 8	186 ± 8	188 ± 8	189 ± 8	191 ± 8	193 ± 8	194 ± 8	197 ± 8	199 ± 8
CN1CCCC1=O [N-methylpyrrolidone]	166 ± 7	167 ± 7	168 ± 7	169 ± 7	170 ± 7	172 ± 7	174 ± 7	175 ± 7	176 ± 7	177 ± 8	178 ± 8
O=CN1CCOCC1 [N-formylmorpholine]	185 ± 8	186 ± 8	188 ± 8	189 ± 8	191 ± 8	193 ± 8	195 ± 8	197 ± 8	200 ± 9	201 ± 9	202 ± 9
